Data taken from ChEMBL document CHEMBL5230138, “Design, synthesis, and antiviral activity of a series of CD4-mimetic small-molecule HIV-1 entry inhibitors” (Bioorg Med Chem, 2021).

Experiments:
[1] = Selectivity index, ratio of CC50 for HIV1 human TZM-bl cells to EC50 for HIV1 ENV pseudotype from the lab-adapted CXCR4-tropic HIV-1 HXB-2 infected in human TZM-bl cells; type: toxicity, cell-based; conditions: for selectivity ratio: TZM-bl cells, read-out: Selectivity Index
[2] = test system: TZM; assay: (§1) Cytotoxicity against human TZM-bl cells assessed as reduction in cell viability incubated for 3 days by MTS assay; type: toxicity, cell-based; conditions: tzm, 72 h, time 3 day
[3] = test system: Human immunodeficiency virus 1; assay: Antiviral activity against HIV1 Env pseudotype from the lab-adapted CXCR4-tropic HIV-1 HXB-2 infected in human TZM-bl cells preincubated for 30 min followed by viral infection and measured after 3 days by luciferase-based single-cycle infection assay; type: functional, organism-based
[4] = as §1; type: toxicity, cell-based; conditions: TZM-bl cells, time 3 day
[5] = test system: Human immunodeficiency virus 1; assay: microbe, parasite or virus in culture; conditions: Human immunodeficiency virus 1, HXB-2 subtype A, U87.CD4.CXCR4, 72 h
[6] = Human immunodeficiency virus 1, HXB-2, TZM-bl, read-out: IC50

Row | Structure (SMILES) | selectivity ratio [1] | CC50 ([2]; read-out: CC50) [µM] | IC50 [3, 6] [µM] | further results
1 | NC[C@H](NC(=O)c1ccc(-c2ccc(C(F)(F)F)c(F)c2)[nH]1)c1ncc(C(O)CO)s1 (some centres not stated) | 15.8 | 98 | 6.2 | 
2 | Cc1cc(-c2ccc(C(F)(F)F)c(F)c2)[nH]c1C(=O)N[C@@H](CN)c1nc(CO)cs1 | 24.7 | 18.5 | 0.54 | 
3 | NC[C@H](NC(=O)c1ccc(-c2ccc(C(F)(F)F)cc2F)[nH]1)c1nc(CO)cs1 | 137 | 25.7 | 0.187 | 
4 | NC[C@H](NC(=O)c1ccc(-c2ccc(C(F)(F)F)cc2)[nH]1)c1ncc(COCC(O)CO)s1 (some centres not stated) |  | > 61.9 | > 13 | Selectivity Index [1]: Not Determined(Insoluble)
5 | NC[C@H](NC(=O)c1ccc(-c2ccc(C(F)(F)F)c(F)c2)[nH]1)c1nc(CCO)cs1 | 122 | 24.4 | 0.2 | 
6 | CC(C)(N)[C@@H](NC(=O)c1ccc(-c2ccc(C(F)(F)F)cc2)[nH]1)c1ncc(CO)s1 | 34 | 23.1 | 0.68 | 
7 | Cc1cc(-c2ccc(C(F)(F)F)c(F)c2)[nH]c1C(=O)N[C@H](CN)c1ncc(CO)s1 |  | 10.4 | 0.21 | 
8 | NC[C@H](NC(=O)c1ccc(-c2ccc(C(F)(F)F)c(F)c2)[nH]1)c1nc(C(=O)O)cs1 |  |  |  | Selectivity Index [1]: Not Determined(Insoluble); CC50 [2]: Not Determined(Insoluble); IC50 ([3]; tzm-bl): Not Determined(Insoluble)
9 | NC[C@H](NC(=O)c1ccc(-c2ccc(C(F)(F)F)c(F)c2)[nH]1)c1nc(C(O)CO)cs1 (some centres not stated) | 132 | 72.4 | 0.55 | 
10 | NC[C@@H](NC(=O)c1ccc(-c2ccc(C(F)(F)F)cc2)[nH]1)c1ncc(COCC(O)CO)s1 (some centres not stated) | 38 |  | 2.1 | CC50 at 72 h [4]: 80 µM
11 | NC[C@@H](NC(=O)c1ccc(-c2ccc(C(F)(F)F)cc2F)[nH]1)c1nc(CO)cs1 | 43.9 | 26.8 | 0.61 | 
12 | NC[C@@H](NC(=O)c1ccc(-c2ccc(C(F)(F)F)cc2F)[nH]1)c1nc(CCO)cs1 |  | 23.4 |  | 
13 | NC[C@@H](NC(=O)c1ccc(-c2ccc(C(F)(F)F)cc2C(F)(F)F)[nH]1)c1nc(CO)cs1 | 5.9 | 37.6 | 6.3 | 
14 | Cc1cc(-c2ccc(C(F)(F)F)c(F)c2)[nH]c1C(=O)N[C@H](CN)c1nc(CO)cs1 | 20.6 | 14.1 | 0.57 | 
15 | NC[C@H](NC(=O)c1ccc(-c2ccc(C(F)(F)F)cc2C(F)(F)F)[nH]1)c1nc(CO)cs1 | 7.9 | 33.4 | 4.2 | 
16 | NC[C@@H](NC(=O)c1ccc(-c2ccc(C(F)(F)F)c(F)c2)[nH]1)c1nc(C(=O)O)cs1 |  |  |  | Selectivity Index [1]: Not Determined(Insoluble); CC50 [2]: Not Determined(Insoluble); IC50 ([3]; tzm-bl): Not Determined(Insoluble)
17 | NC[C@H](NC(=O)c1ccc(-c2ccc(C(F)(F)F)cc2F)[nH]1)c1nc(CCO)cs1 |  | 39.6 |  | 
18 | COC(=O)c1csc([C@H](CN)NC(=O)c2ccc(-c3ccc(C(F)(F)F)c(F)c3)[nH]2)n1 | 14.3 | 41.6 | 2.9 | 
19 | N#Cc1ccc(-c2ccc(C(=O)N[C@H](CN)c3nc(CO)cs3)[nH]2)cc1 |  | > 82 | > 16 | Selectivity Index [1]: Not Determined(Insoluble)
20 | NC[C@H](NC(=O)c1ccc(-c2cc(F)c(Cl)c(F)c2)[nH]1)c1nc(CCO)cs1 | 218 |  | 0.15 | 

Row | Structure (SMILES) | selectivity ratio [1] | CC50 ([2]; read-out: CC50) [µM] | IC50 [3, 6] [µM] | further results
21 | NC[C@@H](NC(=O)c1ccc(-c2ccc(C(F)(F)F)cc2)[nH]1)c1ncc(CO)s1 |  |  |  | IC50 [5]: 0.11 µM
22 | COC(=O)c1csc([C@@H](CN)NC(=O)c2ccc(-c3ccc(C(F)(F)F)c(F)c3)[nH]2)n1 | 4.8 | 23.4 | 4.9 | 
23 | NC[C@H](NC(=O)c1ccc(-c2ccc(C(F)(F)F)c(F)c2)[nH]1)c1nc(C(N)=O)cs1 | 34.2 | > 52 | > 10 | 
24 | CC(CN)(NC(=O)c1ccc(-c2cc(F)c(Cl)c(F)c2)[nH]1)c1nc(CO)cs1 (racemic) | 18.3 | 47.7 | 2.6 | 
25 | NC[C@@H](NC(=O)c1ccc(-c2ccc(C(F)(F)F)c(F)c2)[nH]1)c1nc(CCCO)cs1 | 10.8 | 38 | 3.5 | 
26 | CC(C)(N)[C@H](NC(=O)c1ccc(-c2ccc(C(F)(F)F)cc2)[nH]1)c1nc(CO)cs1 |  | 17.5 | 0.13 | 
27 | NC[C@@H](NC(=O)c1ccc(-c2ccc(C(F)(F)F)c(F)c2)[nH]1)c1nc(CCO)cs1 | 47.4 | 24.2 | 0.51 | 
28 | NC[C@@H](NC(=O)c1ccc(-c2ccc(C(F)(F)F)c(F)c2)[nH]1)c1ncc(C(O)CO)s1 (some centres not stated) | 119 | 70.5 | 0.59 | 
29 | NC[C@@H](NC(=O)c1ccc(-c2cc(F)c(Cl)c(F)c2)[nH]1)c1nc(CCO)cs1 | 33.5 | 32.8 | 0.98 | 
30 | CC(C)(N)[C@H](NC(=O)c1ccc(-c2ccc(C(F)(F)F)cc2)[nH]1)c1ncc(CO)s1 | 109 | 25.1 | 0.23 | 
31 | N#Cc1ccc(-c2ccc(C(=O)N[C@@H](CN)c3nc(CO)cs3)[nH]2)cc1 |  |  | > 16 | Selectivity Index [1]: Not Determined(Insoluble)
32 | Cc1cc(-c2ccc(C(F)(F)F)c(F)c2)[nH]c1C(=O)N[C@@H](CN)c1ncc(CO)s1 | 49.5 | 10.3 | 0.15 | 
33 | NC[C@@H](NC(=O)c1ccc(-c2ccc(C(F)(F)F)c(F)c2)[nH]1)c1nc(C(N)=O)cs1 | 11.3 | 25.9 | 2.3 | 
34 | CC(CN)(NC(=O)c1ccc(-c2ccc(C(F)(F)F)c(F)c2)[nH]1)c1nc(CO)cs1 (racemic) | 28 | 45.3 | 1.6 | 
35 | NC[C@H](NC(=O)c1ccc(-c2ccc(C(F)(F)F)c(F)c2)[nH]1)c1nc(CCCO)cs1 | 90.4 | 22.6 | 0.25 | 
36 | CC(C)(N)[C@H](NC(=O)c1ccc(-c2cc(F)c(Cl)c(F)c2)[nH]1)c1nc(CO)cs1 | 105 | 16 | 0.12 | 
37 | CC(C)(N)[C@@H](NC(=O)c1ccc(-c2ccc(C(F)(F)F)cc2)[nH]1)c1nc(CO)cs1 | 15.3 | 19.9 | 1.3 | 
38 | NC[C@@H](NC(=O)c1ccc(-c2ccc(C(F)(F)F)c(F)c2)[nH]1)c1nc(C(O)CO)cs1 (some centres not stated) | 23.4 | 56.3 | 2.4 | 
39 | CC(C)(N)[C@@H](NC(=O)c1ccc(-c2cc(F)c(Cl)c(F)c2)[nH]1)c1nc(CO)cs1 | 135 | 15.8 | 0.15 | 
